The source of these data is patent US20040121946A9, “Inducing cellular immune responses to her2/neu using peptide and nucleic acid compositions” (priority 2002, published 2004).

The target of assay [1] is HLA-A*0101 (Homo sapiens, UniProt P04439, A114D/A174V/A182V/D101N/D185E/E176A/E190D/L180R/Q94H/R68K/S129P/T187R/V100A/V91M/W191G). Type of assay: binding. Particulars: Table XXV, HLA-A1 motif-bearing peptides.
Assay [2] relates to .221A2.1 cell line, peptide-loaded target. The assay can be described thus: Primary in vitro CTL induction, peptide-specific recognition (51Cr release / in situ IFNγ ELISA). The note with it: normal donors, peptide-pulsed targets. Type of assay: cell-based, human. The method, then:
The colon adenocarcinoma cell lines SW403 and HT-29 were obtained from the American Type Culture Collection (ATCC) (Rockville, Md.). The cell lines that were obtained from ATCC were maintained under the culture conditions recommended by the supplier. […] The colon cancer cells were treated with 100U/ml IFNγ (Genzyme) for 48 hours at 37° C. before use as targets in the ^51Cr release and in situ IFNγ assays.
The monocytes were purified by plating 10×10^6 PBMC/well in a 6-well plate. After 2 hours at 37° C., the non-adherent cells were removed by gently shaking the plates and aspirating the supernatants. The wells were washed a total of three times with 3 ml RPMI to remove most of the non-adherent and loosely adherent cells. Three ml of complete medium containing 50 ng/ml of GM-CSF and 1,000 U/ml of IL-4 were then added to each well. DC were used for CTL induction cultures following 7 days of culture.
Induction of CTL with DC and Peptide: CD8+ T-cells were isolated by positive selection with Dynal immunomagnetic beads (Dynabeads® M-450) and the detacha-bead® reagent. Typically about 200-250×10^6 PBMC were processed to obtain 24×10^6 CD8^+ T-cells (enough for a 48-well plate culture). Briefly, the PBMCs were thawed in RPMI with 30 μg/ml DNAse, washed once with PBS containing 1% human AB serum and resuspended in PBS/1% AB serum at a concentration of 20×10^6cells/ml. The magnetic beads were washed 3 times with PBS/AB serum, added to the cells (140 μl beads/20×10^6 cells) and incubated for 1 hour at 4° C. with continuous mixing. The beads and cells were washed 4× with PBS/AB serum to remove the nonadherent cells and resuspended at 100×10^6 cells/ml (based on the original cell number) in PBS/AB serum containing 100 μl/ml detacha-bead® reagent and 30 μg/ml DNAse. The mixture is incubated for 1 hour at room temperature with continuous mixing. The beads were washed again with PBS/AB/DNAse to collect the CD8+ T-cells. The DC were collected and centrifuged at 1300 rpm for 5-7 minutes, washed once with PBS with 1% BSA, counted and pulsed with 40 μg/ml of peptide at a cell concentration of 1-2×10^6/ml in the presence of 3 μg/ml β2-microglobulin for 4 hours at 20° C. The DC were then irradiated (4,200 rads), washed 1 time with medium and counted again.
Setting up induction cultures: 0.25 ml cytokine-generated DC (@1×10^5 cells/ml) were co-cultured with 0.25 ml of CD8+ T-cells (@2×10^6 cell/ml) in each well of a 48-well plate in the presence of 10 ng/ml of IL-7. rHuman IL10 was added the next day at a final concentration of 10 ng/ml and rhuman IL2 was added 48 hours later at 10 IU/ml.
Restimulation of the induction cultures with peptide-pulsed adherent cells: Seven and fourteen days after the primary induction the cells were restimulated with peptide-pulsed adherent cells. The PBMCS were thawed and washed twice with RPMI and DNAse. The cells were resuspended at 5×10^6 cells/ml and irradiated at ˜4200 rads. The PBMCs were plated at 2×10^6 in 0.5 ml complete medium per well and incubated for 2 hours at 37° C. The plates were washed twice with RPMI by tapping the plate gently to remove the nonadherent cells and the adherent cells pulsed with 10 μg/ml of peptide in the presence of 3 μg/ml β2 microglobulin in 0.25 ml RPMI/5%AB per well for 2 hours at 37° C. Peptide solution from each well was aspirated and the wells were washed once with RPMI. Most of the media was aspirated from the induction cultures (CD8+ cells) and brought to 0.5 ml with fresh media. […]
For orientation: In an ELISA, binding on a coated surface is turned into a signal by an enzyme label.

Assay [3] deals with tumor targets that endogenously express HER2/neu (colon adenocarcinoma cell lines SW403 and HT-29). The assay can be described thus: Primary in vitro CTL induction, recognition of wild-type peptide and endogenous tumor targets (51Cr release / in situ IFNγ ELISA). Type of assay: cell-based, human. The note with it: in vitro, expanded positive cultures.
The target of assay [4] is HLA-A*0203 (Homo sapiens, UniProt P04439, A173T/D140Y/D185E/D98H/E277Q/G131W/G231S/I119V/I121R/I166T/I218V/L180W/L300P/L318F/N151K/N90K/P208A/P217A/Q86G/Q94H/R138H/R169H/T345S). Type of assay: binding.
Assay [5] addresses HLA-A*0206 (Homo sapiens, UniProt P04439, D140Y/D185E/D98H/E176V/E277Q/F33Y/G131W/G231S/I119V/I121R/I166T/I218V/L300P/L318F/N151K/N90K/P208A/P217A/Q86G/Q94H/R138H/R169H/T345S). Type of assay: binding.
The target of assay [6] is HLA-A*0201 (Homo sapiens, UniProt P04439, D140Y/D185E/D98H/E176V/E277Q/G131W/G231S/I119V/I121R/I166T/I218V/L300P/L318F/N151K/N90K/P208A/P217A/Q86G/Q94H/R138H/R169H/T345S). Type of assay: binding.
Assay [7] has as its target HLA-A*2402 (Homo sapiens, UniProt P04439, D101N/D140Y/D185E/E176V/E190D/F33S/G103R/G107R/I119L/I121M/I306V/K335N/L105A/L180Q/L300P/N151K/N90K/Q86E/Q94H/R106L/R138H/R89G/T104I/T345S/V100E/W191G/Y123F). Type of assay: binding. Particulars: HLA-A24 motif-bearing peptides, Table XXVI.
Description: The corresponding peptide sequence are then synthesized and tested for binding to the appropriate allele-specific HLA molecule, HLA-A1 or HLA-24.
The mark [8] stands for this setting: Table XXII, A2 supermotif peptides and analogs.

pIC50: −log10 of the molar value. Read-outs that look alike come from different tables or passages of the source. Where a SMILES comes first, the peptide text is derived from it. Where no end group is shown, it is not given here. [ ]: non-standard residue; d: D form. Abu = CC[C@H](N)C(=O)O

With `CC(C)[C@H](NC(=O)[C@H](CS)NC(=O)[C@@H](NC(=O)[C@H](C)N)[C@@H](C)O)C(=O)N[C@H](C(=O)N[C@@H](C)C(=O)N[C@@H](CS)C(=O)N1CCC[C@H]1C(=O)N[C@@H](Cc1ccc(O)cc1)C(=O)O)[C@@H](C)O` [Her2/neu.293.T2], the pIC50 in assay [1] (read-out: A*[…]) is 7.31.
In the case of `CC(C)C[C@H](NC(=O)[C@H](CO)NC(=O)CNC(=O)[C@H](Cc1ccccc1)NC(=O)[C@H](CC(C)C)NC(=O)[C@@H](N)CCCCN)C(=O)N[C@@H](C)C(=O)N[C@@H](Cc1ccccc1)C(=O)N[C@H](C(=O)O)C(C)C` [Her2/neu.369L2V9], the “induction of peptide-specific CTL” value in assay [2] is recorded as “induced peptide-specific CTLs”. Further, the “recognition of wild-type peptide and of tumor targets endogenously expressing HER2/neu by induced CTL” value in assay [3] was “also recognized the target tumor cells”.
`CC(C)[C@H](NC(=O)[C@H](CS)NC(=O)[C@H](CCC(N)=O)NC(=O)[C@H](CC(=O)O)NC(=O)[C@H](C)NC(=O)[C@@H](N)CCC(=O)O)C(=O)N[C@@H](C)C(=O)N[C@@H](CS)C(=O)N[C@@H](C)C(=O)N[C@@H](Cc1c[nH]cn1)C(=O)N[C@@H](Cc1ccc(O)cc1)C(=O)O` [Her2/neu.580]: in assay [1], the pIC50 is 6.60.
Take `CC[C@H](NC(=O)[C@H](CCCCN)NC(=O)[C@@H](NC(=O)[C@H](CCSC)NC(=O)[C@@H](NC(=O)[C@H](CC(C)C)NC(=O)[C@@H](N)Cc1ccc(O)cc1)[C@@H](C)CC)C(C)C)C(=O)N[C@@H](Cc1c[nH]c2ccccc12)C(=O)N[C@@H](CCSC)C(=O)N[C@H](C(=O)O)C(C)C` [Her2/neu.952L2B7V10] (H-YLIMVK[Abu]WMV-OH): the results for the pIC50 in assay [4] (setting [8]), in assay [5] (setting [8]) and in assay [6] (setting [8]) were 7.11, 7.96 and 8.14, respectively. The “induction of peptide-specific CTL” value in assay [2] is given as “induced peptide-specific CTLs in at least 2 donors”. In addition, the “recognition of wild-type peptide and of tumor targets endogenously expressing HER2/neu by induced CTL” value in assay [3] is “no wild-type peptide or endogenous recognition was observed”.
`CC[C@H](NC(=O)[C@H](CC(C)C)NC(=O)[C@H](C)N)C(=O)N[C@@H](CCCNC(=N)N)C(=O)N[C@@H](Cc1c[nH]c2ccccc12)C(=O)NCC(=O)N[C@@H](CC(C)C)C(=O)N[C@@H](CC(C)C)C(=O)N[C@H](C(=O)O)C(C)C` [Her2neu.5B3V9] (H-AL[Abu]RWGLLV-OH): in assay [2], the “induction of peptide-specific CTL” value is given as “induced peptide-specific CTLs in at least 2 donors”. For the same compound, the “recognition of wild-type peptide and of tumor targets endogenously expressing HER2/neu by induced CTL” value in assay [3] is “no wild-type peptide or endogenous recognition was observed”. For the same compound, in assay [6] (setting [8]), the pIC50 was 7.74.
As for `CC(C)C[C@H](NC(=O)[C@H](CO)NC(=O)CNC(=O)[C@H](Cc1ccccc1)NC(=O)[C@@H](NC(=O)[C@@H](N)CCCCN)C(C)C)C(=O)N[C@@H](C)C(=O)N[C@@H](Cc1ccccc1)C(=O)N[C@H](C(=O)O)C(C)C` [Position V2V9], the “induction of peptide-specific CTL” value in assay [2] is “induced peptide-specific CTLs”. For the same compound, the “recognition of wild-type peptide and of tumor targets endogenously expressing HER2/neu by induced CTL” value in assay [3] is listed as “also recognized the target tumor cells”.
Take H-VLLGVVFGV-OH [Her2/neu.665L2V9]: the “induction of peptide-specific CTL” value in assay [2] is “strong peptide-specific CTL response was observed”. The “recognition of wild-type peptide and of tumor targets endogenously expressing HER2/neu by induced CTL” value in assay [3] is reported as “Peptide-specific CTL activity was maintained in some of the cultures, but no corresponding endogenous recognition was observed”.
In assay [7], RWGLLLAL [RWGLLLAL] had a pIC50 of 6.32.
Consider TYLPTNASL, for which, in assay [7], the pIC50 was 6.50.
As for VLIQRNPQV, the pIC50 was 6.87 in assay [4] (Table XXVII), 6.41 in assay [5] (Table XXVII) and 7.26 in assay [6].
